This is an account of results in publication PMC8451667 (Emerging Microbes & Infections, 2021).

Like-named read-outs stand apart in the source and are kept apart here. Where only a bound is given, the exact number is not on record here.

One data set in a line: in vivo. To be noted: male, BALB/c, mouse, ip, 50 mg/kg.
Data set [1] relates to several contemporary influenza A viruses. In words: microbe, parasite or virus in culture. It counts as cell-based. To be noted: read-out: EC50 values against all IAVs tested.
The next data set relates to Ca/04 (H1N1) virus. On the set-up: species or system mice. To be noted: mouse, in vivo.
The conditions of data set [2]: mouse, in vivo.
The next data set can be described thus: in vitro. Conditions: dog.
In data set [3] the test system is A/California/04/2009 (H1N1) virus. In words: microbe, parasite or virus in culture. The class given is cell-based, Influenza A virus. To be noted: for EC50: Influenza A virus.
The next data set has as its system MDCK cells. To be noted: cited from earlier work.

Usually AUC(0-inf) stands for the area under the concentration-time curve extrapolated to infinity. As usually defined, the CL/F is clearance divided by bioavailability, as obtained after extravascular dosing. What is called Cmax is the peak of the concentration-time curve. By Tmax is commonly meant the time from dosing to the highest level. As a reminder, the Vd/F is the volume of distribution divided by bioavailability. In general, half-life refers to how long it takes for the measured level to halve. Lower therefore signals rapid decline. One may read the EC50 as the concentration at which the effect is half-maximal. In the case of `[2H]C(NC12CC3CC(CC(O)(C3)C1)C2)c1ccc(I)s1` (stereo not shown) [UAWJ280, 3-{[(5-iodothiophen-2-yl)(D)methyl]amino}adamantan-1-ol], in “in vivo”, the AUC(0-inf) was 11.5 µM·h, the CL/F is 187 mL/min/kg, the Cmax was determined as 5.61 µM and the Tmax is 0.42 h. Also, in the data set “in vivo”, the Vd/F is 38 ± 4.4 L/kg and the half-life is 2.34 h. For the same compound, in data set [1], the half-maximal effective concentration (EC50) is 200 to 600 nM. In the data set with Ca/04 (H1N1) virus, the “Clinical signs: activity” value was “minor changes in activity”, the “Clinical signs: physical appearance” value is reported as “mild clinical signs”, the “Influenza virus nucleoprotein in lungs by immunostaining” value is given as “moderate amounts of virus nucleoprotein” and the “Loss of initial body weight” value is reported as around 15%. Moreover, in the data set with Ca/04 (H1N1) virus, the “Section with pneumocyte type 2 hyperplasia and hypertrophy, alveolar oedema and inflammation” value is reported as “up to 80%”; the Survival turned out to be 90%; the “Virus titers in lung and NT by TCID50 vs Ca/04-vehicle group” value was “trend towards reduced virus load”. Moreover, the “Histopathology of brain, livers, kidneys, lungs and hearts” value in data set [2] is listed as “no signs of toxicity”. Moreover, in “in vitro”, the CC50 is above 100000 nM. The “Combination effect with oseltamivir in cell culture” value in data set [3] is listed as “strong synergistic antiviral effect”. The EC50 in data set [3] (H1N1, read-out: EC50 alone UAWJ280 (μM)) was determined as 0.3 ± 0.018 µM.
On to `CCOC(=O)C1=C[C@@H](OC(CC)CC)[C@H](NC(C)=O)[C@@H](N)C1` [Oseltamivir, Oseltamivir phosphate, reference compound], for which, in the data set on Ca/04 (H1N1) virus, the “Clinical signs: activity” value was “remained alert”, the “Clinical signs: physical appearance” value is on record as “mild clinical signs”, the “Influenza virus nucleoprotein in lungs by immunostaining” value is reported as “mild-moderate amounts of viral antigens” and the “Loss of initial body weight” value is around 15%. For the same compound, in the data set with Ca/04 (H1N1) virus, the Survival is recorded as 85%; the “Virus titers in lung and NT by TCID50 vs Ca/04-vehicle group” value is on record as “trend towards reduced virus load”. Further, in data set [2], the “Histopathology of brain, livers, kidneys, lungs and hearts” value is on record as “no signs of toxicity”. Also, in data set [3] (H1N1, read-out: EC50 alone Oseltamivir (nM)), the EC50 came to 0.00177 ± 0.00011 µM.
Take `CCC(CC)O[C@@H]1C=C(C(=O)O)C[C@H](N)[C@H]1NC(C)=O` [Oseltamivir carboxylate]: in the data set with MDCK cells, the CC50 was above 20000 nM.
For the compound `OC12CC3CC(C1)CC(NCc1ccc(I)s1)(C3)C2` [UAWJ106], in the data set with MDCK cells, the CC50 was above 100000 nM.
